Assay results published in article PMC4059246 (Journal of Medicinal Chemistry, 2014).
Read-outs that look alike come from different tables or passages of the source.

Key:
NCL [1] = assay: Western blotting for NCL in U2OS cell lysates; conditions: U2OS cells, 0, 0.1, 1, 10 μM, 3 h (Figure 4)
NCI60 cancer cell lines = conditions: cited from earlier work
RPA194 [2] = assay: Western blotting for RPA194 in U2OS cell lysates; format: cell-based
[3] = after 25 mg/kg ip dose; cited from earlier work
tumor burden = conditions: mouse xenograft assays; cited from earlier work
U2OS cells = assay: Cell viability, WST-1 assay; conditions: U2OS cells, 0, 0.5, 5 μM, 48 h, WST-1 (Figure 5)
[4] = Human liver microsomal stability assay; conditions: for In vitro stability compared with compound 2: human liver microsomes
NCL [5] = conditions: U2OS cells, 0.5 μM, 3 h (Figure 2B)
RPA194 [6] = conditions: for Effect on expression of RPA194: U2OS cells, 0.5 μM, 3 h, representative images (Figure 2A)
[7] = U2OS cells, 0, 0.1, 1, 10 μM, 3 h (Figure 4)
[8] = RPA194 and NCL assays in U2OS cells

| Structure (SMILES) | Degradation of RPA194 by Western blotting (RPA194 [2]; [7]) | Effect on cell viability (U2OS cells) | Effect on nucleolar localization of NCL (NCL [5]) | further results |
| --- | --- | --- | --- | --- |
| CN(C)CCNC(=O)c1cccn2c(=O)c3cc4ccccc4cc3nc12 [Compound 2, N-[2-(Dimethylamino)ethyl]-12-oxo-12H-benzo[g]pyrido[2,1-b]quinazoline-4-carboxamide] | caused degradation of RPA194 | profound loss of cell viability | – | Expression of NCL by Western blotting (NCL [1]): largely unaffected except at very high (10 μM) concentrations; Anticancer activity (NCI60 cancer cell lines): broad and potent anticancer activity; half-life [3]: 2.5 h; Tumor burden (tumor burden): reduced tumor burden; Major metabolites ([4]; identification of the major metabolites, method not described): N-dealkylation as one of several major metabolites |
| O=C(NCCN1CCCCC1)c1cccn2c(=O)c3cc4ccccc4cc3nc12 [Compound 8, 12-Oxo-N-[2-(1-piperidyl)ethyl]-12H-benzo[g]pyrido[2,1-b]quinazoline-4-carboxamide] | caused degradation of RPA194 | profound loss of cell viability | decreased the nucleolar localization of NCL | In vitro stability compared with compound 2 [4]: did not improve stability |
| O=C(NCCN1CCCC1)c1cccn2c(=O)c3cc4ccccc4cc3nc12 [Compound 9, 12-Oxo-N-(2-pyrrolidin-1-ylethyl)-12H-benzo[g]pyrido[2,1-b]quinazoline-4-carboxamide] | – | profound loss of cell viability | decreased the nucleolar localization of NCL | Effect on expression of RPA194 (RPA194 [6]): almost complete loss of expression of RPA194; In vitro stability compared with compound 2 [4]: did not improve stability |
| CCN(CC)CCNC(=O)c1cccn2c(=O)c3cc4ccccc4cc3nc12 [Compound 10, N-[2-(Diethylamino)ethyl]-12-oxo-12H-benzo[g]pyrido[2,1-b]quinazoline-4-carboxamide] | – | – | decreased the nucleolar localization of NCL | In vitro stability compared with compound 2 [4]: did not improve stability |
| CC(CN(C)C)NC(=O)c1cccn2c(=O)c3cc4ccccc4cc3nc12 (centres unmarked) [Compound 11, N-[2-(Dimethylamino)-1-methylethyl]-12-oxo-12H-benzo[g]pyrido[2,1-b]quinazoline-4-carboxamide] | caused degradation of RPA194 | – | decreased the nucleolar localization of NCL | – |
| O=C(NC1CNC1)c1cccn2c(=O)c3cc4ccccc4cc3nc12 [Compound 12, N-(Azetidin-3-yl)-12-oxo-12H-benzo[g]pyrido[2,1-b]quinazoline-4-carboxamide] | – | – | decreased the nucleolar localization of NCL | – |
| CC(CNC(=O)c1cccn2c(=O)c3cc4ccccc4cc3nc12)N(C)C (centres unmarked) [Compound 13, N-[2-(Dimethylamino)propyl]-12-oxo-12H-benzo[g]pyrido[2,1-b]quinazoline-4-carboxamide] | – | profound loss of cell viability | decreased the nucleolar localization of NCL | Effect on expression of RPA194 (RPA194 [6]): almost complete loss of expression of RPA194 |
| CN(C)CCCCNC(=O)c1cccn2c(=O)c3cc4ccccc4cc3nc12 [Compound 14, N-[4-(Dimethylamino)butyl]-12-oxo-12H-benzo[g]pyrido[2,1-b]quinazoline-4-carboxamide] | less potent | little or no activity | – | – |
| CN(C)CCNC(=O)c1cccn2c(=O)c3ccccc3nc12 [Compound 15, N-[2-(Dimethylamino)ethyl]-11-oxopyrido[2,1-b]quinazoline-6-carboxamide] | less potent | little or no activity | – | Decrease in potency relative to compound 2 (RPA194 [6]): over 40 fold; Effect on expression of RPA194 (RPA194 [6]): no effect |
| CCN(CC)CCNC(=O)c1cccn2c(=O)c3ccccc3nc12 [Compound 16, N-[2-(Diethylamino)ethyl]-11-oxopyrido[2,1-b]quinazoline-6-carboxamide] | – | – | – | Decrease in potency relative to compound 2 (RPA194 [6]; RPA194/NCL assays in U2OS cells, versus compound 2): over 40 fold |
| CN(C)CCOC(=O)c1cccn2c(=O)c3cc4ccccc4cc3nc12 [Compound 17, 2-(Dimethylamino)ethyl 12-Oxo-12H-benzo[g]pyrido[2,1-b]quinazoline-4-carboxylate] | – | – | – | Biological activity (in words) (RPA194 [6]; [8]): significant loss in potency |
| CN(C)CCN(C)C(=O)c1cccn2c(=O)c3cc4ccccc4cc3nc12 [Compound 18, N-[2-(Dimethylamino)ethyl]-N-methyl-12-oxo-12H-benzo[g]pyrido[2,1-b]quinazoline-4-carboxamide] | – | little or no activity | – | Degradation of RPA194 by Western blotting (RPA194 [2]): inactive |
| CC(C)N1CCN(C(=O)c2cccn3c(=O)c4cc5ccccc5cc4nc23)CC1 [Compound 31, 4-(4-Isopropylpiperazine-1-carbonyl)-12H-benzo[g]pyrido[2,1-b]quinazoline-12-one] | – | – | – | Biological activity (in words) (RPA194 [6]): inactive |
| CN(C)[C@H]1CCN(C(=O)c2cccn3c(=O)c4cc5ccccc5cc4nc23)C1 [Compound 33, 4-[(3S)-3-(Dimethylamino)pyrrolidine-1-carbonyl]-12H-benzo[g]pyrido[2,1-b]quinazoline-12-one] | – | – | – | Biological activity (in words) (RPA194 [6]; [8]): inactive |
| CCN(CC)C1CCN(C(=O)c2cccn3c(=O)c4cc5ccccc5cc4nc23)C1 (centres unmarked) [Compound 34, 4-[3-(Diethylamino)pyrrolidine-1-carbonyl]-12H-benzo[g]pyrido[2,1-b]quinazoline-12-one] | – | – | – | Biological activity (in words) (RPA194 [6]; [8]): inactive |
| O=C(NCCN1CCOCC1)c1cccn2c(=O)c3cc4ccccc4cc3nc12 [Compound 36, N-(2-Morpholinoethyl)-12-oxo-12H-benzo[g]pyrido[2,1-b]quinazoline-4-carboxamide] | less potent | little or no activity | – | – |
